Source: the supplement of paper PMC11061612

Key:
Assay in all cases: combination Emax (second highest fraction inhibited in the dose matrix, 72 h); higher = more inhibition; extreme values may be limits of the assay
42-MG-BA (Glioblastoma) = system: 42-MG-BA (Glioblastoma)
In short: (§1)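 Cell lines grown in DMEM/F12 or RPMI with 10% FBS were plated in 1536-well plates and held 24 hours at 37°C, 5% CO2 before 72 hours of exposure to two-drug dose matrices, with DMSO typically at 0.2%. CellTiter-Glo 2.0 luminescence gave viability, which was converted to inhibition. Vehicle wells were set to 0 and blank wells to 1. Combination Emax is the second-highest inhibition in the matrix, and Bliss excess is the observed combination effect minus the expected EA + EB − EA·EB, where EA and EB are the single-agent effects.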

AGS (Gastric Carcinoma) = system: AGS (Gastric Carcinoma)
In short: as §1

[1] = system: CAL-148 (Breast Carcinoma)
In short: as §1

[2] = system: CCRF-CEM (T-Lymphoblastic Leukemia)
In short: as §1

[3] = system: COLO-205 (Colorectal Carcinoma)
In short: as §1

[4] = system: DoTc2-4510 (Cervical Carcinoma)
In short: as §1

ES4 (Ewing's Sarcoma) = system: ES4 (Ewing's Sarcoma)
In short: as §1

HOS (Osteosarcoma) = system: HOS (Osteosarcoma)
In short: as §1

[5] = system: HT-1376 (Bladder Carcinoma)
In short: as §1

[6] = system: Hs-578-T (Breast Carcinoma)
In short: as §1

[7] = system: HuP-T4 (Pancreatic Carcinoma)
In short: as §1

[8] = system: KYSE-520 (Esophageal Squamous Cell Carcinoma)
In short: as §1

[9] = system: LB831-BLC (Bladder Carcinoma)
In short: as §1

[10] = system: LS-180 (Colorectal Carcinoma)
In short: as §1

[11] = system: LU-135 (Small Cell Lung Carcinoma)
In short: as §1

NOS-1 (Osteosarcoma) = system: NOS-1 (Osteosarcoma)
In short: as §1

[12] = system: Ramos-2G6-4C10 (Burkitt's Lymphoma)
In short: as §1

[13] = system: SNU-5 (Gastric Carcinoma)
In short: as §1

[14] = system: TCCSUP (Bladder Carcinoma)
In short: as §1

[15] = system: TE-15 (Esophageal Squamous Cell Carcinoma)
In short: as §1

| SMILES | combination Emax (42-MG-BA (Glioblastoma)) | combination Emax (AGS (Gastric Carcinoma)) | combination Emax [1] | combination Emax [2] | combination Emax [3] | combination Emax [4] | combination Emax (ES4 (Ewing's Sarcoma)) | combination Emax (HOS (Osteosarcoma)) | combination Emax [5] | combination Emax [6] | combination Emax [7] | combination Emax [8] | combination Emax [9] | combination Emax [10] | combination Emax [11] | combination Emax (NOS-1 (Osteosarcoma)) | combination Emax [12] | combination Emax [13] | combination Emax [14] | combination Emax [15] |
| --- | --- | --- | --- | --- | --- | --- | --- | --- | --- | --- | --- | --- | --- | --- | --- | --- | --- | --- | --- | --- |
| CN(CCO)CC[C@H](CSc1ccccc1)Nc1ccc(S(=O)(=O)NC(=O)c2ccc(N3CCC([C@@H](O)c4ccccc4-c4ccc(Cl)cc4)CC3)cc2)cc1S(=O)(=O)C(F)(F)F [AZD4320] + CCN(CCO)CCCOc1ccc2c(Nc3cc(CC(=O)Nc4cccc(F)c4)[nH]n3)ncnc2c1 [AZD2811] (first compound max 1 µM, 7x7, partner max 1 µM) | 0.831 | 0.979 | 1 | 1 | 0.974 | 0.735 | 0.631 | 0.12 | 0.784 | 0.918 | 0.274 | 0.292 | 0.526 | 0.18 | 1 | 0.667 | 0.909 | 0.45 | 0.543 | 0.141 |
| CN(CCO)CC[C@H](CSc1ccccc1)Nc1ccc(S(=O)(=O)NC(=O)c2ccc(N3CCC([C@@H](O)c4ccccc4-c4ccc(Cl)cc4)CC3)cc2)cc1S(=O)(=O)C(F)(F)F [AZD4320] + CN(C)CCCOc1ccc(-c2ccc3ncc4c(c3c2)n(C2CCOCC2)c(=O)n4C)cn1 [AZD0156] (first compound max 1 µM, 7x7, partner max 1 µM) | 0.274 | 0.237 | 0.504 | 1 | 0.77 | 0.6 | 0.655 | 0.0916 | 0.484 | 0.531 | 0.127 | 0.157 | 0.286 | 0.159 | 1 | 0.611 | 0.345 | 0.245 | 0.127 | 0.0786 |
| CN(CCO)CC[C@H](CSc1ccccc1)Nc1ccc(S(=O)(=O)NC(=O)c2ccc(N3CCC([C@@H](O)c4ccccc4-c4ccc(Cl)cc4)CC3)cc2)cc1S(=O)(=O)C(F)(F)F [AZD4320] + C[C@@H]1COCCN1C2=NC(=NC(=C2)C3(CC3)[S@](=N)(=O)C)C4=C5C=CNC5=NC=C4 [AZD6738] (first compound max 1 µM, 7x7, partner max 10 µM) | 0.675 | 0.993 | 0.978 | 1 | 0.623 | 0.912 | 1 | 0.722 | 0.718 | 0.991 | 0.621 | 0.672 | 0.381 | 0.739 | 1 | 0.914 | 0.946 | 0.978 | 0.865 | 0.908 |
| CN(CCO)CC[C@H](CSc1ccccc1)Nc1ccc(S(=O)(=O)NC(=O)c2ccc(N3CCC([C@@H](O)c4ccccc4-c4ccc(Cl)cc4)CC3)cc2)cc1S(=O)(=O)C(F)(F)F [AZD4320] + C[C@@H](Nc1cc(F)cc(F)c1)c1cc(C(=O)N(C)C)cc2c(=O)cc(N3CCOCC3)oc12 [AZD8186] (first compound max 1 µM, 7x7, partner max 3 µM) | 0.757 | 0.974 | 0.996 | 1 | 0.776 | 0.911 | 0.849 | 0.37 | 0.551 | 0.874 | 0.515 | 0.34 | 0.532 | 0.504 | 1 | 0.748 | 0.685 | 0.703 | 0.417 | 0.551 |
| CN(CCO)CC[C@H](CSc1ccccc1)Nc1ccc(S(=O)(=O)NC(=O)c2ccc(N3CCC([C@@H](O)c4ccccc4-c4ccc(Cl)cc4)CC3)cc2)cc1S(=O)(=O)C(F)(F)F [AZD4320] + Cc1cc2ncnn2cc1Nc1ncc2c(n1)n(C1CCOCC1)c(=O)n2C [AZD7648] (first compound max 1 µM, 7x7, partner max 10 µM) | 0.312 | 0.318 | 0.744 | 1 | 0.669 | 0.499 | 0.619 | 0.134 | 0.786 | 0.63 | 0.156 | 0.23 | 0.214 | 0.234 | 1 | 0.753 | 0.718 | 0.45 | 0.268 | 0.0708 |
| CN(CCO)CC[C@H](CSc1ccccc1)Nc1ccc(S(=O)(=O)NC(=O)c2ccc(N3CCC([C@@H](O)c4ccccc4-c4ccc(Cl)cc4)CC3)cc2)cc1S(=O)(=O)C(F)(F)F [AZD4320] + Cn1cnc2c(F)c(Nc3ccc(Br)cc3Cl)c(C(=O)NOCCO)cc21 [Selumetinib] (first compound max 1 µM, 7x7, partner max 3 µM) | 0.694 | 1 | 0.996 | 0.993 | 1 | 0.906 | 0.823 | 0.368 | 0.687 | 0.812 | 0.544 | 0.401 | 0.373 | 0.691 | 1 | 0.69 | 0.472 | 0.759 | 0.405 | 0.43 |
| COc1nnc2ccc(N3CCC(c4ccc(OCCN5CCN(C)C(=O)[C@H]5C)cc4)CC3)nn12 [AZD5153] + C=CCn1c(=O)c2cnc(Nc3ccc(N4CCN(C)CC4)cc3)nc2n1-c1cccc(C(C)(C)O)n1 [AZD1775] (first compound max 1 µM, partner max 1 µM) | 0.688 | 0.923 | 0.907 | 1 | 0.79 | 0.473 | 0.758 | 0.501 | 0.517 | 0.822 | 0.549 | 0.656 | 0.668 | 0.623 | 1 | 0.867 | 1 | 0.522 | 0.578 | 0.756 |
| COc1nnc2ccc(N3CCC(c4ccc(OCCN5CCN(C)C(=O)[C@H]5C)cc4)CC3)nn12 [AZD5153] + CC1(C)CCC(CN2CCN(c3ccc(C(=O)NS(=O)(=O)c4ccc(NCC5CCOCC5)c([N+](=O)[O-])c4)c(Oc4cnc5[nH]ccc5c4)c3)CC2)=C(c2ccc(Cl)cc2)C1 [Venetoclax] (first compound max 1 µM, 7x7, partner max 1 µM) | 0.56 | 0.774 | 0.557 | 0.562 | 0.566 | 0.385 | 0.616 | 0.454 | 0.242 | 0.761 | 0.485 | 0.615 | 0.499 | 0.61 | 0.98 | 0.728 | 0.589 | 0.469 | 0.252 | 0.503 |
| COc1nnc2ccc(N3CCC(c4ccc(OCCN5CCN(C)C(=O)[C@H]5C)cc4)CC3)nn12 [AZD5153] + CCN(CCO)CCCOc1ccc2c(Nc3cc(CC(=O)Nc4cccc(F)c4)[nH]n3)ncnc2c1 [AZD2811] (first compound max 1 µM, 7x7, partner max 1 µM) | 0.783 | 0.936 | 0.927 | 0.993 | 0.869 | 0.381 | 0.685 | 0.486 | 0.256 | 0.771 | 0.542 | 0.605 | 0.546 | 0.617 | 1 | 0.765 | 0.666 | 0.506 | 0.366 | 0.486 |
| COc1nnc2ccc(N3CCC(c4ccc(OCCN5CCN(C)C(=O)[C@H]5C)cc4)CC3)nn12 [AZD5153] + C[C@@H]1COCCN1C2=NC(=NC(=C2)C3(CC3)[S@](=N)(=O)C)C4=C5C=CNC5=NC=C4 [AZD6738] (first compound max 1 µM, 7x7, partner max 10 µM) | 0.793 | 0.959 | 0.912 | 0.993 | 0.83 | 0.511 | 0.942 | 0.704 | 0.481 | 0.8 | 0.626 | 0.681 | 0.648 | 0.767 | 1 | 0.887 | 0.913 | 0.913 | 0.566 | 0.889 |
| COc1nnc2ccc(N3CCC(c4ccc(OCCN5CCN(C)C(=O)[C@H]5C)cc4)CC3)nn12 [AZD5153] + Cc1c2c(nn1C)CSCc1cc(n(C)n1)CSc1cc(c3ccccc3c1)OCCCc1c(C(=O)O)n(C)c3c-2c(Cl)ccc13 [AZD5991] (first compound max 1 µM, 7x7, partner max 1 µM) | 0.883 | 0.851 | 1 | 0.858 | 0.79 | 0.362 | 0.63 | 0.879 | 0.264 | 0.896 | 0.606 | 0.585 | 0.587 | 0.585 | 0.994 | 1 | 1 | 0.561 | 0.32 | 0.627 |
| COc1nnc2ccc(N3CCC(c4ccc(OCCN5CCN(C)C(=O)[C@H]5C)cc4)CC3)nn12 [AZD5153] + Cn1cnc2c(F)c(Nc3ccc(Br)cc3Cl)c(C(=O)NOCCO)cc21 [Selumetinib] (first compound max 1 µM, 7x7, partner max 10 µM) | 0.705 | 0.999 | 0.79 | 0.638 | 1 | 0.427 | 0.658 | 0.544 | 0.26 | 0.736 | 0.814 | 0.691 | 0.494 | 0.828 | 0.948 | 0.894 | 0.56 | 0.582 | 0.337 | 0.743 |
